Tested on: Ikaros
Test: Intracellular Ikaros expression in BCMA-bead stimulated anti-BCMA CAR T cells (flow cytometry, MFI)
Type: cell-based, human
Method: A BCMA-Fc fusion protein containing the extracellular domain of human BCMA and a human IgG1Fc was conjugated to beads by covalently coupling to the surface of commercially available tosyl-activated magnetic beads having a diameter of approximately […] (M-450 beads, ThermoFisher, Waltham Mass.) (see e.g. International published PCT App. No. WO2019/027850). Following incubation, anti-BCMA CAR-expressing T cells were stained with antibodies and analyzed by flow cytometry to assess intracellular levels of Ikaros and Aiolos in CD4+CAR+ or CD8+CAR+ cells, as measured by median fluorescence intensity (MFI). Median fluorescence intensity (MFI) values for Ikaros and Aiolos were normalized and calculated as a percentage relative to vehicle control.

For `O=C1CC[C@H](N2Cc3c(OCc4ccc(CN5CCOCC5)cc4)cccc3C2=O)C(=O)N1` [Compound A, (S)-3-[4-(4-morpholin-4-ylmethyl-benzyloxy)-1-oxo-1,3-dihydro-isoindol-2-yl]-piperidine-2,6-dione], the “intracellular Ikaros expression (MFI, percentage relative to vehicle control)” value (CD4+CAR+ or CD8+CAR+ cells, 24 or 72 hours, lenalidomide 1000 nM, Compound A 1, 10, 100 nM, Compound B 0.1, 1, 10 nM) was “concentration dependent decrease” and the “potency in decreasing Ikaros and Aiolos expression, compared with lenalidomide” value (stimulated anti-BCMA CAR T cells) was “more potent than lenalidomide”.

Source: patent US20230165872A1, “COMBINATION OF BCMA-DIRECTED T CELL THERAPY AND AN IMMUNOMODULATORY COMPOUND” (Juno Therapeutics, Inc., priority 2020, published 2023)
